# In patent publication US20170107257A1, “CYCLIC APELIN ANALOGS” (LANTHIOPEP B.V., priority 2014, published 2017):
# Numbered stars: 1 amine (or outer) side, 2 acyl side, 3 side chain; on linkers, the order of the positions; unused ones are H or OH. Bridge positions count the residues as written; N and C are the ends. Square brackets hold non-standard residues; d marks the D form. Ends that are not written are not given here. Peptide text beside a SMILES is read from it. ξ: configuration not given here. ξAbu(3ξ-yl) = CC(C(N[*:1])C(=O)[*:2])[*:3]; pGlu = O=C1CC[C@@H](C(=O)O)N1; X1 = CC=C(N[*:1])C(=O)[*:2]; ξC = NC(CS)C(=O)O
# Experiments:
# [1] = target: T1, hAPJ (Homo sapiens, UniProt P35414); assay: beta arrestin assay (DiscoverX); type: cell-based; conditions: for Ratio β-arrestin/cAMP: ratio of β-arrestin EC50 to cAMP EC50; for EC50: read-out: β-arrestin EC50
# T1 sequence (P35414 1-380): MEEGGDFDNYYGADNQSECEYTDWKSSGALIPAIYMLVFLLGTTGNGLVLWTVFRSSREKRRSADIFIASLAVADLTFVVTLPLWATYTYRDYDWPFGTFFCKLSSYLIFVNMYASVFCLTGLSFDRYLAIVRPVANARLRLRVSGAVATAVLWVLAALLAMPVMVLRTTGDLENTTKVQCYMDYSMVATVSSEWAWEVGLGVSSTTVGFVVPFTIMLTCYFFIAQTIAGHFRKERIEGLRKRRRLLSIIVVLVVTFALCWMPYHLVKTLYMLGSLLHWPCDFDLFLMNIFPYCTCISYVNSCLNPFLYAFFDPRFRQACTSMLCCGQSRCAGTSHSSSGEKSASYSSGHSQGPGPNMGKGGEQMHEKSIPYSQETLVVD
# Protocol: (§1) (Me)lan apelin variants were tested with cAMP and beta arrestin assays from the company DiscoverX.
# [2] = Stability of apelin analogs in rat plasma; type: in vitro ADME; conditions: rat, plasma; for half-life at 0.1 mg/ml: pH 7.4
# Protocol: Stability of apelin analogs in rat plasma. […] Samples were quenched by acidifying to final concentration of 5% TFA. Samples were analyzed on HPLC. Peak heights were plotted as relative to the initial peak heights.
# [3] = target: T1, hAPJ; assay: cAMP assay (DiscoverX); type: cell-based
# Protocol: as §1
# [4] = target: T1, hAPJ; assay: hAPJ receptor internalization assay (APJ-GFP translocation, HEK293); type: cell-based; parameters: expressed in transfected cells; host or cells: HEK293, adenoviral transduction (Ad-GFP-hAPJ); conditions: 500 nM max, read-out: Relative EC50 (nM), hAPJ internalisation
# Protocol: HEK293 cells are seeded 24 hours prior to experiment at 50% confluence in 2×F75 flasks. The next morning, cells are trypsinized, vortexed for 60 seconds and passed through a 40 micron mesh filter. Cells are resuspended at a density of 300,000 cells/ml in OptiMEM+2% FBS, and Ad-GFP-hAPJ virus is added at an MOI of 1 PFU/cell. Cells are vortexed and dispensed into 96 well clear bottom, black dishes at a concentration of 10,000 cells/well. Cells are maintained at room temperature for 30 minutes to allow cell attachment to the dish prior to Incubation overnight at 37° C. in a 5% CO2 incubator. Next morning, apelin analogs are added in a concentration response curve (500 nM max). APJ-GFP translocation is observed and documented on Olympus FV con-focal microscope.
Ratio β-arrestin/cAMP [1],half-life at 0.1 mg/ml [2] [min],EC50 [3] [nM],EC50 [1] [nM],Molecule,other results
200,–,–,–,"CC(C)C[C@H](NC(=O)[C@H](CCCNC(=N)N)NC(=O)[C@@H]1CCCN1C(=O)[C@H](CCCNC(=N)N)NC(=O)[C@@H]1CCC(=O)N1)C(=O)NC1CSCC(C(=O)N2CCC[C@H]2C(=O)N[C@@H](Cc2ccccc2)C(=O)O)NC(=O)[C@@H]2CCCN2C(=O)CNC(=O)[C@H](CCCCN)NC(=O)[C@H](Cc2c[nH]cn2)NC1=O (single isomer, unassigned) [pEApeM9S II, pERPRLLanHKGPLanPF]",–
50,> 1440,–,–,"CSCC[C@@H]1NC(=O)[C@@H]2CCCN2C(=O)CNC(=O)[C@H](CCCCN)NC(=O)[C@H](Cc2c[nH]cn2)NC(=O)C(NC(=O)[C@H](CC(C)C)NC(=O)[C@H](CCCNC(=N)N)NC(=O)[C@@H]2CCCN2C(=O)[C@H](CCCNC(=N)N)NC(=O)[C@@H]2CCC(=O)N2)CSCC(C(=O)N2CCC[C@H]2C(=O)N[C@@H](Cc2ccccc2)C(=O)O)NC1=O (single isomer, unassigned) [pEApeM27S I, pERPRLLanHKGPMLanPF]",–
–,–,–,–,CSCC[C@@H]1NC(=O)[C@@H]2CCCN2C(=O)CNC(=O)C(NC(=O)[C@H](Cc2c[nH]cn2)NC(=O)[C@H](C)NC(=O)[C@H](CC(C)C)NC(=O)[C@H](CCCNC(=N)N)NC(=O)[C@@H]2CCCN2C(=O)[C@H](CCCNC(=N)N)NC(=O)[C@@H](N)CCC(N)=O)CSCC(C(=O)N[C@@H](Cc2ccccc2)C(=O)O)NC1=O (some centres unmarked) [ApeT8cS],activity in Example 8 [3]: significant activity
0.75,–,80,60,"CSCC[C@H](NC(=O)[C@@H]1CCCN1C(=O)CNC(=O)C1CSC(C)C(NC(=O)[C@H](CC(C)C)NC(=O)[C@H](CCCNC(=N)N)NC(=O)[C@@H]2CCCN2C(=O)[C@H](CCCNC(=N)N)NC(=O)[C@@H]2CCC(=O)N2)C(=O)N[C@@H](Cc2c[nH]cn2)C(=O)N[C@@H](CCCCN)C(=O)N1)C(=O)N1CCC[C@H]1C(=O)N[C@@H](Cc1ccccc1)C(N)=O (some centres unmarked) [amidated pEApeM6, pERPRLmeLanHKmeLanGPMPF-NH2] ([pGlu]RPRL[ξAbu(3ξ-yl)]HK[ξC]GPMPF-NH2; thioether 6-9)",–
167,120,17,2840,"CSCC[C@H](NC(=O)[C@@H]1CCCN1C(=O)CNC(=O)[C@H](CCCCN)NC(=O)C1CSC(C)C(NC(=O)[C@@H]2CCCN2C(=O)[C@H](CCCNC(=N)N)NC(=O)[C@@H]2CCC(=O)N2)C(=O)N[C@@H](CCCNC(=N)N)C(=O)N[C@@H](CC(C)C)C(=O)N[C@@H](C)C(=O)N1)C(=O)N1CCC[C@H]1C(=O)N[C@@H](Cc1ccccc1)C(=O)O (some centres unmarked) [pEApeI3c, pERPmeLanRLAmeLanKGPMPF] ([pGlu]RP[ξAbu(3ξ-yl)]RLA[ξC]KGPMPF-OH; thioether 4-8; C-terminus assumed)",–
87,120,12.8,1110,"CSCC[C@H](NC(=O)[C@@H]1CCCN1C(=O)CNC(=O)[C@H](CCCCN)NC(=O)C1CSC(C)C(NC(=O)[C@H](CCCNC(=N)N)NC(=O)[C@@H]2CCCN2C(=O)[C@H](CCCNC(=N)N)NC(=O)[C@@H]2CCC(=O)N2)C(=O)N[C@@H](CC(C)C)C(=O)N[C@@H](C)C(=O)N1)C(=O)N1CCC[C@H]1C(=O)N[C@@H](Cc1ccccc1)C(=O)O (some centres unmarked) [pEApeI4a, pERPRmeLanLAmeLanKGPMPF] ([pGlu]RPR[ξAbu(3ξ-yl)]LA[ξC]KGPMPF-OH; thioether 5-8; C-terminus assumed)",–
–,180,–,–,"CSCC[C@H](NC(=O)[C@@H]1CCCN1C(=O)[C@@H]1CSCC(NC(=O)[C@H](CC(C)C)NC(=O)[C@H](CCCNC(=N)N)NC(=O)[C@@H]2CCCN2C(=O)[C@H](CCCNC(=N)N)NC(=O)[C@@H]2CCC(=O)N2)C(=O)N[C@@H](C)C(=O)N[C@@H](Cc2c[nH]cn2)C(=O)N[C@@H](CCCCN)C(=O)N1)C(=O)N1CCC[C@H]1C(=O)N[C@@H](Cc1ccccc1)C(=O)O (some centres unmarked) [pEApeI5cS I, pERPRLLanAHKLanPMPF]",–
0.16,1440,190,32,"CC=C(NC(=O)[C@H](CCSC)NC(=O)[C@@H]1CCCN1C(=O)C1CSC(C)C(NC(=O)[C@H](CC(C)C)NC(=O)[C@H](CCCNC(=N)N)NC(=O)[C@@H]2CCCN2C(=O)[C@H](CCCNC(=N)N)NC(=O)[C@@H]2CCC(=O)N2)C(=O)N[C@@H](Cc2c[nH]cn2)C(=O)N[C@@H](CCCCN)C(=O)N1)C(=O)N[C@@H](Cc1ccccc1)C(=O)O (some centres unmarked) [pEApeM5T, pERPRLmeLanHKmeLanPMDhbF] ([pGlu]RPRL[ξAbu(3ξ-yl)]HK[ξC]PM[X1]F-OH; thioether 6-9; C-terminus assumed)",stability in rat plasma [2]: enhanced stability
–,480,–,–,"CSCC[C@H](NC(=O)[C@@H]1CCCN1C(=O)CNC(=O)[C@@H]1CSC(C)C(NC(=O)[C@H](CC(C)C)NC(=O)[C@H](CCCNC(=N)N)NC(=O)[C@@H]2CCCN2C(=O)[C@H](CCCNC(=N)N)NC(=O)[C@@H]2CCC(=O)N2)C(=O)N[C@@H](Cc2c[nH]cn2)C(=O)N[C@@H](CCCCN)C(=O)N1)C(=O)N1CCC[C@H]1C(=O)N[C@@H](Cc1ccccc1)C(=O)O (some centres unmarked) [pEApeM6, pERPRLmeLanHKmeLanGPMPF] ([pGlu]RPRL[ξAbu(3ξ-yl)]HKCGPMPF-OH; thioether 6-9)",–
3,–,125,385,"CSCC[C@H](NC(=O)[C@@H]1CCCN1C(=O)CNC(=O)C1CSC(C)C(NC(=O)[C@H](CC(C)C)NC(=O)[C@H](CCCNC(=N)N)NC(=O)[C@@H]2CCCN2C(=O)[C@H](CCCNC(=N)N)NC(=O)[C@@H]2CCC(=O)N2)C(=O)N[C@@H](Cc2c[nH]cn2)C(=O)N[C@@H](CCCCN)C(=O)N1)C(=O)N1CCC[C@H]1C(=O)O (some centres unmarked) [pEApeM6deltaF, pERPRLmeLanHKmeLanGPMP] ([pGlu]RPRL[ξAbu(3ξ-yl)]HK[ξC]GPMP-OH; thioether 6-9; C-terminus assumed)",EC50 [4]: > 1000 nM
–,900,–,–,"CSCC[C@H](NC(=O)[C@@H]1CCCN1C(=O)[C@@H]1CSC(C)C(NC(=O)[C@H](CC(C)C)NC(=O)[C@H](CCCNC(=N)N)NC(=O)[C@@H]2CCCN2C(=O)[C@H](CCCNC(=N)N)NC(=O)[C@@H]2CCC(=O)N2)C(=O)N[C@@H](Cc2c[nH]cn2)C(=O)N[C@@H](CCCCN)C(=O)NCC(=O)N1)C(=O)N1CCC[C@H]1C(=O)N[C@@H](Cc1ccccc1)C(=O)O (some centres unmarked) [pEApeM7, pERPRLmeLanHKGmeLanPMPF] ([pGlu]RPRL[ξAbu(3ξ-yl)]HKGCPMPF-OH; thioether 6-10)",–
–,180,–,–,"CSCC[C@H](NC(=O)[C@@H]1CSCC(NC(=O)[C@H](CC(C)C)NC(=O)[C@H](CCCNC(=N)N)NC(=O)[C@@H]2CCCN2C(=O)[C@H](CCCNC(=N)N)NC(=O)[C@@H]2CCC(=O)N2)C(=O)N[C@@H](Cc2c[nH]cn2)C(=O)N[C@@H](CCCCN)C(=O)NCC(=O)N2CCC[C@H]2C(=O)N1)C(=O)N1CCC[C@H]1C(=O)N[C@@H](Cc1ccccc1)C(=O)O (some centres unmarked) [pEApeM12S, pERPRLLanHKGPLanMPF]",–
–,> 1440,–,–,"CSCC[C@@H]1NC(=O)[C@@H]2CCCN2C(=O)CNC(=O)[C@H](CCCCN)NC(=O)[C@H](Cc2c[nH]cn2)NC(=O)C(NC(=O)[C@H](CC(C)C)NC(=O)[C@H](CCCNC(=N)N)NC(=O)[C@@H]2CCCN2C(=O)[C@H](CCCNC(=N)N)NC(=O)[C@@H]2CCC(=O)N2)CSC[C@@H](C(=O)N[C@@H](Cc2ccccc2)C(=O)O)NC1=O (some centres unmarked) [pEApeM26S I, pERPRLLanHKGPMLanF]",–
122,480,2,245,CSCC[C@@H]1NC(=O)[C@@H]2CCCN2C(=O)CNC(=O)C(NC(=O)[C@H](Cc2c[nH]cn2)NC(=O)[C@H](C)NC(=O)[C@H](CC(C)C)NC(=O)[C@H](CCCNC(=N)N)NC(=O)[C@@H]2CCCN2C(=O)[C@H](CCCNC(=N)N)NC(=O)[C@@H]2CCC(=O)N2)CSCC(C(=O)N[C@@H](Cc2ccccc2)C(=O)O)NC1=O (some centres unmarked) [pEApeT8cS],–
–,420,–,–,CSCC[C@H](NC(=O)[C@@H]1CCCN1C(=O)CNC(=O)[C@@H]1CSC(C)C(NC(=O)[C@H](CC(C)C)NC(=O)[C@H](CCCNC(=N)N)NC(=O)[C@@H]2CCCN2C(=O)[C@H](CCCNC(=N)N)NC(=O)[C@@H]2CCC(=O)N2)C(=O)N[C@@H](Cc2c[nH]cn2)C(=O)N[C@@H](CCCCN)C(=O)N1)C(=O)N1CCC[C@H]1C(=O)N[C@@H](C)C(=O)O (some centres unmarked) [pERPRLmeLanHKmeLanGPMPA] ([pGlu]RPRL[ξAbu(3ξ-yl)]HKCGPMPA-OH; thioether 6-9),–
–,600,–,–,CSCC[C@H](NC(=O)[C@@H]1CCCN1C(=O)CNC(=O)[C@@H]1CSC(C)C(NC(=O)[C@H](CC(C)C)NC(=O)[C@H](CCCNC(=N)N)NC(=O)[C@@H]2CCCN2C(=O)[C@H](CCCNC(=N)N)NC(=O)[C@@H]2CCC(=O)N2)C(=O)N[C@@H](Cc2c[nH]cn2)C(=O)N[C@@H](CCCCN)C(=O)N1)C(=O)N[C@H](C(=O)N[C@@H](Cc1ccccc1)C(=O)O)C(C)C (some centres unmarked) [pERPRLmeLanHKmeLanGPMVF] ([pGlu]RPRL[ξAbu(3ξ-yl)]HKCGPMVF-OH; thioether 6-9),–
20,–,0.6,12,QRPRLAHKGPMPF [reference compound],–
